According to PubChem BioAssay AID1745844 (Carcinogenic Potency Database (CPDB), 2022):

System: rodent lifetime carcinogenesis bioassay, tumor incidence TD50
Assay: chronic cancer bioassays in animals – CPDB, compiled studies (AID 1745844)
Details: rat

Row | Structure (SMILES) | TD50 (strain MRC, females, in drinking water, site: any site (literature study), lesion: several types, types named in the paper, dosed 38 weeks, study length 105 weeks) [mg/kg/day] | TD50 (strain MRC, females, in drinking water, site: esophagus, lesion: several types, types named in the paper, dosed 38 weeks, study length 105 weeks) [mg/kg/day] | TD50 (strain MRC, females, in drinking water, site: tongue, lesion: squamous-cell carcinoma, dosed 38 weeks, study length 105 weeks) [mg/kg/day] | TD50 (strain MRC, males, in drinking water, site: any site (literature study), lesion: several types, types named in the paper, dosed 38 weeks, study length 95 weeks) [mg/kg/day] | TD50 (strain MRC, males, in drinking water, site: esophagus, lesion: several types, types named in the paper, dosed 38 weeks, study length 95 weeks) [mg/kg/day] | TD50 (strain Fischer 344, females, by gavage, site: forestomach, lesion: one or several types, types not named, dosed 30 weeks, study length 104 weeks) [mg/kg/day] | TD50 (strain Fischer 344, females, by gavage, site: mammary gland, lesion: adenocarcinoma, dosed 30 weeks, study length 104 weeks) [mg/kg/day] | TD50 (strain Fischer 344, females, by gavage, site: uterus, lesion: several types, types named in the paper, dosed 30 weeks, study length 104 weeks) [mg/kg/day] | TD50 (strain Fischer 344, males, by gavage, site: Zymbal's gland, lesion: one or several types, types not named, dosed 30 weeks, study length 104 weeks) [mg/kg/day] | TD50 (strain Fischer 344, males, by gavage, site: colon, lesion: one or several types, types not named, dosed 30 weeks, study length 104 weeks) [mg/kg/day] | TD50 (strain Fischer 344, males, by gavage, site: forestomach, lesion: one or several types, types not named, dosed 30 weeks, study length 104 weeks) [mg/kg/day] | TD50 (strain Fischer 344, males, by gavage, site: lung, lesion: several types, types named in the paper, dosed 30 weeks, study length 104 weeks) [mg/kg/day]
1 | O=NN1CCSCC1 | 7.38 | 7.69 | 22 | 2.29 | 4.15 |  |  |  |  |  |  | 
2 | C=CCN(N=O)C(N)=O |  |  |  |  |  | 0.476 | 0.601 | 1.87 | 0.541 | 0.541 | 0.266 | 0.421
